In one experiment the target is T1, human AXL (473-end) (Homo sapiens, UniProt P30530).
T1 construct: human AXL (473-end); purchased SignalChem, Canada
T1 sequence (P30530 473-894 limits assumed): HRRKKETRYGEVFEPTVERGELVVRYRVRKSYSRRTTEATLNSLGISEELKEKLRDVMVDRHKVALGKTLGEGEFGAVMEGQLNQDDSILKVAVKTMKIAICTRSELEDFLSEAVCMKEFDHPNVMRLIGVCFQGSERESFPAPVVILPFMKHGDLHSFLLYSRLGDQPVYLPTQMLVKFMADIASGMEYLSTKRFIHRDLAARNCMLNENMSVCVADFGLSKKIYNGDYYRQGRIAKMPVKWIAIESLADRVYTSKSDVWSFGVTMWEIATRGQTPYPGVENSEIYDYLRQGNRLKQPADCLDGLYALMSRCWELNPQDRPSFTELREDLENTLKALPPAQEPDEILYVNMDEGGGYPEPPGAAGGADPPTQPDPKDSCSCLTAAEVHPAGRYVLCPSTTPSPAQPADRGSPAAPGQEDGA
The experiment is described as follows: HTRF kinase activity biochemical assay, AXL. The settings on record: 10 μM ATP, 30 minutes pre-incubation. As to the method: (§1) For the SAR (structure-activity relationship) and compound screening, HTRF (Homogeneous Time Resolved Fluorescence) kinase activity assay was employed for all MER, AXL and TYRO3 kinases using Cisbio HTRF® KinEASE™-TK kit (Cisbio, USA). The kit included biotin-labeled TK substrate, streptavidin-XL665, Eu3+-cryptate-labeled TK antibody and HTRF® Detection buffer. There are two main steps in the kinase assay: kinase reaction and detection of phosphorylated substrate. The reaction was carried out in white low volume 384-well plate (Corning, USA) with 25 nL compound in dimethyl sulfoxide in each well. […] After 1 hour incubation at room temperature, the fluorescence intensity was measured with Envision[…] plate reader (PerkinElmer, USA). Upon excitation at 340 nm by UV, the energy from Eu3+ donor of the antibody is transferred to the FRET acceptor XL665, and […] emits light at 665 nm.
For orientation: TR-FRET usually uses a lanthanide donor and a delayed reading to cut background.

For another experiment, the target named is T2, human TYRO3 (455-end) (Homo sapiens, UniProt Q06418).
T2 construct: TYRO3 (455-end); purchased SignalChem, Canada
T2 sequence (Q06418 455-890 limits assumed): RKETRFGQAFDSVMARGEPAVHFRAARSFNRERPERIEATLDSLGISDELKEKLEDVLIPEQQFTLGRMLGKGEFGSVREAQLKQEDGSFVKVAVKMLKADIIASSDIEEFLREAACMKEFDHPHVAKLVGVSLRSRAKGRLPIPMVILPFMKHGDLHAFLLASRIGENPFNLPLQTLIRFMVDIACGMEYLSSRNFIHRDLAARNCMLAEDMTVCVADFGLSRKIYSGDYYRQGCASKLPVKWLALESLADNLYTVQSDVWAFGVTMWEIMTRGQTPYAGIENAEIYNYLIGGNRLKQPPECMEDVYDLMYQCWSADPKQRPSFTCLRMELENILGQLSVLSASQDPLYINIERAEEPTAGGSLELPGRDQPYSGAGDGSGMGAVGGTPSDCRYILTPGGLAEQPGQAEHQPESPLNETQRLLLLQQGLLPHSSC
The experiment is described as follows: HTRF kinase activity biochemical assay, TYRO3. The settings on record: 10 μM ATP, 30 minutes pre-incubation; read-out: HTRF TYRO IC50. The procedure: as §1

In the next experiment the target is T3, human MER (528-end) (Homo sapiens, UniProt Q12866).
T3 construct: human MER (528-end); purchased Camnabio, Japan
T3 sequence (Q12866 528-999 limits assumed): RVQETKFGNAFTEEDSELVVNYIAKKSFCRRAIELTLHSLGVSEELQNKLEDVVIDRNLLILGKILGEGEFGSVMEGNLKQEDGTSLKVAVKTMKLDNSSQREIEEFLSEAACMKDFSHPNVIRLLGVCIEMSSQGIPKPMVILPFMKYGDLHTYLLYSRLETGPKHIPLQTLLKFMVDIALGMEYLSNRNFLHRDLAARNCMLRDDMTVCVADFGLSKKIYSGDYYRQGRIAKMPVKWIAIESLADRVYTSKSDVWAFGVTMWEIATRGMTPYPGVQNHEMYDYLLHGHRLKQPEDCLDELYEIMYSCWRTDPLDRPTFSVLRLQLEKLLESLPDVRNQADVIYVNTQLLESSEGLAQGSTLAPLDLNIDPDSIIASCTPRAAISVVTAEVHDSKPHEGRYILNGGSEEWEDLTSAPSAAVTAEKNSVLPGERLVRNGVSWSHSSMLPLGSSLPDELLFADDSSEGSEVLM
The experiment is described as follows: HTRF kinase activity biochemical assay, MER. The settings on record: 10 μM ATP, 30 minutes pre-incubation; read-out: HTRF MERTK IC50. The procedure:
as §1

Bounds are passed on as bounds.

For orientation: IC50 means the concentration that gives 50% inhibition. In the case of `Nc1ncc(-c2ccc(F)nc2)cc1C(=O)N[C@H]1CCC[C@@H]1OCc1ccc(-c2ccc3c(c2)CC[C@@H]3N2CCN(CC(O)CO)CC2)cc1` (stereo partly drawn) [Example 100, 6-amino-N-{(1S,2S)-2-[(4-{(1S)-1-[4-(2,3-dihydroxypropyl)piperazin-1-yl]-2,3-dihydro-1H-inden-5-yl}phenyl)methoxy]cyclopentyl}-6′-fluoro[3,3′-bipyridine]-5-carboxamide], the IC50 at human AXL (473-end) was < 10 nM; on human TYRO3 (455-end) it was 100 to 1000 nM.
`CC1(C)CN(C2CCN(CCO)CC2)c2ccc(-c3ccc(CO[C@H]4COC[C@@H]4NC(=O)c4nc(-c5ccc(F)nc5)cnc4N)cc3)cc21` [Example 52, 3-amino-6-(6-fluoropyridin-3-yl)-N-{(3S,4R)-4-[(4-{1-[1-(2-hydroxyethyl)piperidin-4-yl]-3,3-dimethyl-2,3-dihydro-1H-indol-5-yl}phenyl)methoxy]oxolan-3-yl}pyrazine-2-carboxamide]: the IC50 against human AXL (473-end) was 10 to 100 nM; on human MER (528-end), < 10 nM; on human TYRO3 (455-end), 100 to 1000 nM.
In the same order, the values of `Nc1ncc(-c2cncc(F)c2)cc1C(=O)N[C@H]1CCC[C@@H]1OCc1ccc(-c2ccc3c(c2)OCCC3N2CCN(CCO)CC2)cc1` (stereo partly drawn) [Example 132, 6-amino-5′-fluoro-N-{(1S,2S)-2-[(4-{4-[4-(2-hydroxyethyl)piperazin-1-yl]-3,4-dihydro-2H-1-benzopyran-7-yl}phenyl)methoxy]cyclopentyl}[3,3′-bipyridine]-5-carboxamide] are < 10 nM, < 10 nM and 100 to 1000 nM.
Take `Cn1cc(-c2cnc(N)c(C(=O)N[C@H]3CCC[C@@H]3OCc3ccc(-c4ccc5c(c4)C(C)(C)CN5C4CCN(CC(N)=O)CC4)cc3)c2)cn1` [Example 27, 2-amino-N-{(1S,2S)-2-[(4-{1-[1-(2-amino-2-oxoethyl)piperidin-4-yl]-3,3-dimethyl-2,3-dihydro-1H-indol-5-yl}phenyl)methoxy]cyclopentyl}-5-(1-methyl-1H-pyrazol-4-yl)pyridine-3-carboxamide]: the figures for the IC50 against human AXL (473-end), at human MER (528-end) and on human TYRO3 (455-end) were 10 to 100 nM, < 10 nM and 100 to 1000 nM, respectively.
For `Cc1cn(C)c2ccc(-c3ccc(CO[C@H]4CCC[C@@H]4NC(=O)c4cc(-c5cnn(C)c5)cnc4N)cc3)cc12` [Example 54, 2-amino-N-[(1S,2S)-2-{[4-(1,3-dimethyl-1H-indol-5-yl)phenyl]methoxy}cyclopentyl]-5-(1-methyl-1H-pyrazol-4-yl)pyridine-3-carboxamide], the IC50 was 10 to 100 nM against human AXL (473-end), 10 to 100 nM on human MER (528-end) and > 1000 nM on human TYRO3 (455-end).
As for `Cn1cc(-c2cnc(N)c(C(=O)N[C@H]3CCC[C@@H]3OCc3ccc(-c4ccc5c(c4)CCCN5C4CCN(CCO)CC4)cc3)c2)cn1` [Example 112, 2-amino-N-{(1S,2S)-2-[(4-{1-[1-(2-hydroxyethyl)piperidin-4-yl]-1,2,3,4-tetrahydroquinolin-6-yl}phenyl)methoxy]cyclopentyl}-5-(1-methyl-1H-pyrazol-4-yl)pyridine-3-carboxamide], the results for the IC50 against human AXL (473-end), on human MER (528-end) and at human TYRO3 (455-end) were < 10 nM, < 10 nM and 10 to 100 nM, respectively.
On to `Cc1nn(C)cc1-c1cnc(N)c(C(=O)N[C@H]2COC[C@@H]2OCc2ccc(-c3ccc4c(c3)C(C)(C)CN4C3CCN(CCO)CC3)cc2)c1` [Example 42, 2-amino-5-(1,3-dimethyl-1H-pyrazol-4-yl)-N-{(3S,4R)-4-[(4-{1-[1-(2-hydroxyethyl)piperidin-4-yl]-3,3-dimethyl-2,3-dihydro-1H-indol-5-yl}phenyl)methoxy]oxolan-3-yl}pyridine-3-carboxamide], for which the IC50 at human AXL (473-end) is < 10 nM; at human MER (528-end), < 10 nM; on human TYRO3 (455-end), 10 to 100 nM.
`Nc1ncc(-c2ccc(F)nc2)cc1C(=O)N[C@H]1CCC[C@@H]1OCc1ccc(-c2ccc3c(c2)CC[C@H]3N2CCN3C[C@H](O)C[C@H]3C2)cc1` [Example 118, 6-amino-6′-fluoro-N-{(1S,2S)-2-[(4-{(1R)-1-[(7R,8aS)-7-hydroxyhexahydropyrrolo[1,2-a]pyrazin-2 (1H)-yl]-2,3-dihydro-1H-inden-5-yl}phenyl)methoxy]cyclopentyl}[3,3′-bipyridine]-5-carboxamide]: the IC50 at human AXL (473-end) is 10 to 100 nM; at human MER (528-end) it was < 10 nM; at human TYRO3 (455-end) it was > 1000 nM.
For `Nc1ncc(-c2ccc(F)nc2)cc1C(=O)N[C@H]1CCC[C@@H]1OCc1ccc(-c2ccc3c(c2)CCC3N2CCN(CC(O)CO)CC2)cc1` (stereo partly drawn) [Example 80, 6-amino-N-{(1S,2S)-2-[(4-{1-[4-(2,3-dihydroxypropyl)piperazin-1-yl]-2,3-dihydro-1H-inden-5-yl}phenyl)methoxy]cyclopentyl}-6′-fluoro[3,3′-bipyridine]-5-carboxamide], the IC50 on human AXL (473-end) was < 10 nM; on human TYRO3 (455-end), 100 to 1000 nM.
Taken in the same sequence, the figures for `Nc1ncc(-c2cccnc2F)cc1C(=O)N[C@H]1CCC[C@@H]1OCc1ccc(-c2ccc3c(c2)CCC3N2CCN(CCO)CC2)cc1` (stereo partly drawn) [Example 82, 6-amino-2′-fluoro-N-{(1S,2S)-2-[(4-{1-[4-(2-hydroxyethyl)piperazin-1-yl]-2,3-dihydro-1H-inden-5-yl}phenyl)methoxy]cyclopentyl}[3,3′-bipyridine]-5-carboxamide] were < 10 nM and 100 to 1000 nM.
For `Nc1ncc(-c2cccnc2F)cc1C(=O)N[C@H]1CCC[C@@H]1OCc1ccc(-c2ccc3c(c2)CC[C@@H]3N2CCN(C[C@H](O)CO)CC2)cc1` [Example 166, 6-amino-N-[(1S,2S)-2-({4-[(1S)-1-{4-[(2S)-2,3-dihydroxypropyl]piperazin-1-yl}-2,3-dihydro-1H-inden-5-yl]phenyl}methoxy)cyclopentyl]-2′-fluoro[3,3′-bipyridine]-5-carboxamide], the IC50 against human AXL (473-end) is < 10 nM; on human TYRO3 (455-end), 100 to 1000 nM.
Taken in the same sequence, the figures for `Nc1ncc(-c2cccnc2F)cc1C(=O)N[C@H]1CCC[C@@H]1OCc1ccc(-c2ccc3c(c2)CC[C@@H]3N2CCN(CC(O)CO)CC2)cc1` (stereo partly drawn) [Example 102, 6-amino-N-{(1S,2S)-2-[(4-{(1S)-1-[4-(2,3-dihydroxypropyl)piperazin-1-yl]-2,3-dihydro-1H-inden-5-yl}phenyl)methoxy]cyclopentyl}-2′-fluoro[3,3′-bipyridine]-5-carboxamide] were < 10 nM and 100 to 1000 nM.
With `Nc1ncc(-c2cccnc2F)cc1C(=O)N[C@H]1CCC[C@@H]1OCc1ccc(-c2ccc3c(c2)CCC[C@@H]3N2CCN(C[C@H](O)CO)CC2)cc1` [Example 173, 6-amino-N-[(1S,2S)-2-({4-[(5S)-5-{4-[(2S)-2,3-dihydroxypropyl]piperazin-1-yl}-5,6,7,8-tetrahydronaphthalen-2-yl]phenyl}methoxy)cyclopentyl]-2′-fluoro[3,3′-bipyridine]-5-carboxamide], the values for the IC50 against human AXL (473-end) and at human TYRO3 (455-end) were < 10 nM and 10 to 100 nM, respectively.
Turning to `Nc1ncc(-c2cccnc2F)cc1C(=O)N[C@H]1CCC[C@@H]1OCc1ccc(-c2ccc3c(c2)CC[C@@H]3N2CCN(C[C@@H](O)CO)CC2)cc1` [Example 167, 6-amino-N-[(1S,2S)-2-({4-[(1S)-1-{4-[(2R)-2,3-dihydroxypropyl]piperazin-1-yl}-2,3-dihydro-1H-inden-5-yl]phenyl}methoxy)cyclopentyl]-2′-fluoro[3,3′-bipyridine]-5-carboxamide], the figures for the IC50 at human AXL (473-end) and at human TYRO3 (455-end) were < 10 nM and 100 to 1000 nM, respectively.
